{
  "source": "paper PMC7892437",
  "about": "(Frontiers in Pharmacology, 2021)",
  "key": {"[1]": {"test_system": "VSV-SARS-CoV-2-Sdel18 pseudovirus", "experiment": "microbe, parasite or virus in culture", "format": "cell-based"}, "[2]": {"test_system": "SARS-CoV-2 BetaCoV/Shenzhen/SZTH-003/2020 strain", "experiment": "microbe, parasite or virus in culture", "format": "cell-based", "settings": "for inhibitory effect relative to Chloroquine diphosphate: authentic SARS-CoV-2 assay, in vitro"}, "[3]": {"test_system": "BHK21-hACE2 cells"}, "[4]": {"experiment": "in vitro", "settings": "hamster"}, "[5]": {"test_system": "Ebola virus", "settings": "ref Johansen et al., 2013; cited from earlier work"}, "[6]": {"test_system": "VSV-G", "format": "cell-based, vesicular stomatitis virus"}, "[7]": {"settings": "Pseudovirus, read-out: Co-treatment IC50"}, "[8]": {"settings": "Pseudovirus, read-out: Pre-treatment IC50"}, "[9]": {"settings": "Pseudovirus, read-out: Pre-treatment IC90"}, "[10]": {"settings": "Severe acute respiratory syndrome coronavirus 2, Vero, 120 h"}, "[11]": {"settings": "Pseudovirus, read-out: Co-treatment IC90"}},
  "note": "“And” between values parts separate entries of the source, which are not always exact repeats. Identical values can stand only once. Like-named read-outs stand apart in the source and are kept apart here.",
  "data": [
    {"smiles": "CN1C[C@@H]2c3ccccc3Oc3ccc(Cl)cc3[C@H]2C1.Cl", "note": "(racemic) [Asenapine (hydrochloride)]", "values": [
      {"measurement": "IC90", "setting": "[1]; read-out: IC90", "result": 76.4, "unit": "µM"},
      {"measurement": "IC90", "setting": "[2]", "result": 43, "unit": "µM"},
      {"measurement": "cell cytotoxicity", "setting": "[3]; at the concentration of 100 μM", "result": "no obvious cell cytotoxicity was observed"}
    ]},
    {"smiles": "CCCCc1oc2ccccc2c1C(=O)c1cc(I)c(OCCN(CC)CC)c(I)c1.Cl", "note": "[Amiodarone (hydrochloride)]", "values": [
      {"measurement": "effect on authentic SARS-CoV-2 virus infection", "setting": "[2]; at a concentration of 100 μM", "result": "no effect"}
    ]},
    {"smiles": "CCN(CC)CCCC(C)Nc1ccnc2cc(Cl)ccc12", "note": "(stereo not shown) [Chloroquine diphosphate]", "values": [
      {"measurement": "IC50", "setting": "[1]; Pseudovirus, 12 h", "result": 11.6, "unit": "µM"},
      {"measurement": "IC90", "setting": "[1]; Pseudovirus, 12 h", "result": 85.2, "unit": "µM"},
      {"measurement": "IC50", "setting": "[1]; [7]", "result": 27.6, "unit": "µM"},
      {"measurement": "IC50", "setting": "[1]; [8]", "result": 9.27, "unit": "µM"},
      {"measurement": "IC90", "setting": "[1]; [9]", "result": 35.2, "unit": "µM"},
      {"measurement": "IC50", "setting": "[2]; [10]", "result": 5.33, "unit": "µM"},
      {"measurement": "IC90", "setting": "[2]; [10]", "result": 12.9, "unit": "µM"}
    ]},
    {"smiles": "CCN(CC)CCOc1ccc(C(=C(Cl)c2ccccc2)c2ccccc2)cc1", "note": "[Clomiphene (citrate)]", "values": [
      {"measurement": "IC90", "setting": "[1]; [11]", "result": 19.6, "unit": "µM"},
      {"measurement": "IC90", "setting": "[2]; [10]", "result": 33.9, "unit": "µM"},
      {"measurement": "CC50", "setting": "[4]; Co-treatment CC50", "result": 54.4, "unit": "µM"},
      {"measurement": "CC50", "setting": "[4]; Pre-treatment CC50", "result": 24.9, "unit": "µM"}
    ]},
    {"smiles": "CCN(CC)CCOc1ccc(C(=C(Cl)c2ccccc2)c2ccccc2)cc1", "note": "[Clomiphene]", "values": [
      {"measurement": "survival benefit for infected mice", "setting": "[5]", "result": 90, "unit": "%"}
    ]},
    {"smiles": "CN1CCc2c(c3ccccc3n2Cc2ccccc2)C1", "note": "[Mebhydrolin (napadisylate)]", "values": [
      {"measurement": "IC50", "setting": "[1]; read-out: IC50", "result": 12.1, "unit": "µM"},
      {"measurement": "IC90", "setting": "[1]; read-out: IC90", "result": 133, "unit": "µM"}
    ]},
    {"smiles": "CN(C)c1ccc2nc3ccc(=[N+](C)C)cc-3sc2c1", "note": "[Methylene Blue]", "values": [
      {"measurement": "IC50", "setting": "[1]; Pseudovirus, 12 h", "result": 9.05, "unit": "µM"},
      {"measurement": "IC90", "setting": "[1]; Pseudovirus, 12 h", "result": 70.5, "unit": "µM"}
    ]},
    {"smiles": "CC[C@@H]1/C=C(\\C)C[C@H](C)C[C@H](OC)[C@H]2O[C@@](O)(C(=O)C(=O)N3CCCC[C@H]3C(=O)O[C@H](/C(C)=C/[C@@H]3CC[C@H](Cl)[C@H](OC)C3)[C@H](C)[C@@H](O)CC1=O)[C@H](C)C[C@@H]2OC", "note": "[Pimecrolimus]", "values": [
      {"measurement": "IC90", "setting": "[1]", "result": 32, "unit": "µM"},
      {"measurement": "IC50", "setting": "[1]; Pseudovirus, 12 h", "result": 11.3, "unit": "µM"},
      {"measurement": "IC90", "setting": "[1]; Pseudovirus, 12 h", "result": "< 50", "unit": "µM"},
      {"measurement": "cytotoxicity compared with the other selected drugs", "setting": "[3]", "result": "more serious cytotoxic than other drugs"}
    ]},
    {"smiles": "NC(=O)c1ncn([C@@H]2O[C@H](CO)[C@@H](O)[C@H]2O)n1", "note": "[Ribavirin]", "values": [
      {"measurement": "IC50", "setting": "[1]; Pseudovirus, 12 h", "result": 9.29, "unit": "µM"},
      {"measurement": "IC90", "setting": "[1]; Pseudovirus, 12 h", "result": 62.1, "unit": "µM"},
      {"measurement": "inhibitory effect on VSV-G", "setting": "[6]", "result": "significant inhibitor effects"}
    ]},
    {"smiles": "CN(C)CCOc1ccc(/C(=C(/CCCl)c2ccccc2)c2ccccc2)cc1", "note": "[Toremifene (Citrate)]", "values": [
      {"measurement": "IC50", "setting": "[1]; read-out: IC50", "result": 5.53, "unit": "µM"},
      {"measurement": "IC90", "setting": "[1]; read-out: IC90", "result": 86.5, "unit": "µM"}
    ]},
    {"smiles": "CN1CCN(CCCN2c3ccccc3Sc3ccc(C(F)(F)F)cc32)CC1.Cl.Cl", "note": "[Trifluoperazine (dihydrochloride)]", "values": [
      {"measurement": "IC50", "setting": "[1]; read-out: IC50", "result": 5.44, "unit": "µM"},
      {"measurement": "IC90", "setting": "[1]; read-out: IC90", "result": "< 50 µM and 27.3 µM"},
      {"measurement": "cytotoxicity compared with the other selected drugs", "setting": "[3]", "result": "more serious cytotoxic than other drugs"}
    ]},
    {"smiles": "Br.Cc1ccc(Sc2ccccc2N2CCNCC2)c(C)c1", "note": "[Vortioxetine (hydrobromide)]", "values": [
      {"measurement": "IC50", "setting": "[1]; read-out: IC50", "result": 6.99, "unit": "µM"},
      {"measurement": "IC90", "setting": "[1]; read-out: IC90", "result": "< 50 µM and 44.6 µM"},
      {"measurement": "IC50", "setting": "[2]", "result": 28.1, "unit": "µM"},
      {"measurement": "IC90", "setting": "[2]", "result": 62.8, "unit": "µM"},
      {"measurement": "inhibitory effect relative to Chloroquine diphosphate", "setting": "[2]", "result": "slightly less effective"}
    ]},
    {"smiles": "Cc1ccc(Sc2ccccc2N2CCNCC2)c(C)c1", "note": "[Vortioxetine]", "values": [
      {"measurement": "IC90", "setting": "[1]", "result": 46.6, "unit": "µM"},
      {"measurement": "IC50", "setting": "[1]; Pseudovirus, 12 h", "result": 7.16, "unit": "µM"},
      {"measurement": "IC90", "setting": "[1]; Pseudovirus, 12 h", "result": "< 50", "unit": "µM"},
      {"measurement": "IC50", "setting": "[1]; [7]", "result": 6.77, "unit": "µM"},
      {"measurement": "IC90", "setting": "[1]; [11]", "result": 22.3, "unit": "µM"},
      {"measurement": "IC50", "setting": "[1]; [8]", "result": 3, "unit": "µM"},
      {"measurement": "IC90", "setting": "[1]; [9]", "result": 13.8, "unit": "µM"},
      {"measurement": "IC50", "setting": "[2]; [10]", "result": 8.03, "unit": "µM"},
      {"measurement": "IC90", "setting": "[2]; [10]", "result": 18.3, "unit": "µM"},
      {"measurement": "inhibitory effect relative to Chloroquine diphosphate", "setting": "[2]", "result": "comparable to Chloroquine diphosphate"},
      {"measurement": "CC50", "setting": "[4]; Co-treatment CC50", "result": 27.1, "unit": "µM"},
      {"measurement": "CC50", "setting": "[4]; Pre-treatment CC50", "result": 28.5, "unit": "µM"}
    ]}
  ]
}
